In the experiment the target is T1, Caspase-1 (Homo sapiens, UniProt P29466).
T1 sequence (P29466 whole entry): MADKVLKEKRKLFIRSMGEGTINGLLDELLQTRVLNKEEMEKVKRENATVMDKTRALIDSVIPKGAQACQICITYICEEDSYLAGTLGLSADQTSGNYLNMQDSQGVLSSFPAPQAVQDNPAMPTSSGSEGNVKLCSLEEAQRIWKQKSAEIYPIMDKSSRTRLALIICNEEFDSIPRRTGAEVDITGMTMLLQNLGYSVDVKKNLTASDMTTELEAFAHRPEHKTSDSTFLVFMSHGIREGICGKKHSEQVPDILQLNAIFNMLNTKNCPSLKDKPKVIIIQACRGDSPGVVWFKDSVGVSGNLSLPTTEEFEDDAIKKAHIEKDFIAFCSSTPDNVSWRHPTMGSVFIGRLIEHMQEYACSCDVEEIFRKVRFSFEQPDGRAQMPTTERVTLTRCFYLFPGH
As to the kind of experiment: The compound was tested for its inhibitory activity against IL-1 beta converting enzyme.
Regarding `CC(=O)N[C@@H](Cc1ccc(O)cc1)C(=O)N[C@H](C(=O)N[C@@H](C)C(=O)N[C@@H](CC(=O)O)C(=O)CCCCc1ccccc1)C(C)C`, the Ki (in general, a dissociation constant, usually derived from enzyme kinetics or from competition with a known ligand) is 0.042 µM.

As to `CC(=O)N[C@@H](Cc1ccc(O)cc1)C(=O)N[C@H](C(=O)N[C@@H](C)C(=O)N[C@@H](CC(=O)O)C(=O)C1CCCCC1)C(C)C`, the inhibition constant Ki is > 100 µM.

The molecule `CC(C)[C@H](NC(=O)CCc1ccccc1)C(=O)N[C@@H](C)C(=O)N[C@@H](CC(=O)O)C(=O)Cc1ccccc1` came in with a Ki of 3.1 µM.

On to `CC(C)[C@H](NC(=O)CCc1ccccc1)C(=O)N[C@@H](C)C(=O)N[C@@H](CC(=O)O)C(=O)CCCc1ccccc1`, for which the affinity corresponds to a Ki of 0.1 µM.

The molecule `CC(C)[C@H](NC(=O)CCc1ccccc1)C(=O)N[C@@H](C)C(=O)N[C@@H](CC(=O)O)C(=O)CCc1ccccc1` showed a Ki of 0.61 µM.

`CC(=O)N[C@@H](Cc1ccc(O)cc1)C(=O)N[C@H](C(=O)N[C@@H](C)C(=O)N[C@@H](CC(=O)O)C(=O)CCCCCc1ccccc1)C(C)C` gave a Ki of 0.0185 µM.

For the molecule `CCC(=O)[C@H](CC(=O)O)NC(=O)[C@H](C)NC(=O)[C@@H](NC(=O)[C@H](Cc1ccc(O)cc1)NC(C)=O)C(C)C`, the affinity, expressed as Ki, was 4 µM. This Ki is about 220-fold higher than that of the molecule before.

Consider `CC(=O)N[C@@H](Cc1ccc(O)cc1)C(=O)NC(C(=O)N[C@@H](C)C(=O)NC(CC(=O)O)C(C)=O)C(C)C` (single isomer, unassigned), for which the Ki was > 10 µM.

As for `CC(=O)N[C@@H](Cc1ccc(O)cc1)C(=O)N[C@H](C(=O)N[C@@H](C)C(=O)N[C@@H](CC(=O)O)C(=O)c1ccccc1)C(C)C` (stereo in doubt), the Ki worked out at 10 µM.

On to `CC(=O)N[C@@H](Cc1ccc(O)cc1)C(=O)N[C@H](C(=O)N[C@@H](C)C(=O)N[C@@H](CC(=O)O)C(=O)c1ccccc1)C(C)C` (stereo in doubt; 7c), for which the Ki was > 100 µM.
